Experimental data as given in EP4592286A1, “MACROCYCLIC NITROGEN-CONTAINING CROWN ETHER COMPOUND AND USE THEREOF AS PROTEIN KINASE INHIBITOR” (Artivila Biopharma, priority 2022, dated 2024).

Tests used:
Type in all cases: biochemical
JAK3 = target: T1, JAK3 (Homo sapiens, UniProt P52333); assay: experiment of inhibiting kinase activity (Caliper mobility shift assay), JAK3; settings: for inhibition at 0.01 µM: at 10 nM; for inhibition at 0.01 µM / inhibition at 0.1 µM: read-out: inhibition rate JAK3; for inhibition at 0.1 µM: at 100 nM
T1 sequence (P52333 1-1124): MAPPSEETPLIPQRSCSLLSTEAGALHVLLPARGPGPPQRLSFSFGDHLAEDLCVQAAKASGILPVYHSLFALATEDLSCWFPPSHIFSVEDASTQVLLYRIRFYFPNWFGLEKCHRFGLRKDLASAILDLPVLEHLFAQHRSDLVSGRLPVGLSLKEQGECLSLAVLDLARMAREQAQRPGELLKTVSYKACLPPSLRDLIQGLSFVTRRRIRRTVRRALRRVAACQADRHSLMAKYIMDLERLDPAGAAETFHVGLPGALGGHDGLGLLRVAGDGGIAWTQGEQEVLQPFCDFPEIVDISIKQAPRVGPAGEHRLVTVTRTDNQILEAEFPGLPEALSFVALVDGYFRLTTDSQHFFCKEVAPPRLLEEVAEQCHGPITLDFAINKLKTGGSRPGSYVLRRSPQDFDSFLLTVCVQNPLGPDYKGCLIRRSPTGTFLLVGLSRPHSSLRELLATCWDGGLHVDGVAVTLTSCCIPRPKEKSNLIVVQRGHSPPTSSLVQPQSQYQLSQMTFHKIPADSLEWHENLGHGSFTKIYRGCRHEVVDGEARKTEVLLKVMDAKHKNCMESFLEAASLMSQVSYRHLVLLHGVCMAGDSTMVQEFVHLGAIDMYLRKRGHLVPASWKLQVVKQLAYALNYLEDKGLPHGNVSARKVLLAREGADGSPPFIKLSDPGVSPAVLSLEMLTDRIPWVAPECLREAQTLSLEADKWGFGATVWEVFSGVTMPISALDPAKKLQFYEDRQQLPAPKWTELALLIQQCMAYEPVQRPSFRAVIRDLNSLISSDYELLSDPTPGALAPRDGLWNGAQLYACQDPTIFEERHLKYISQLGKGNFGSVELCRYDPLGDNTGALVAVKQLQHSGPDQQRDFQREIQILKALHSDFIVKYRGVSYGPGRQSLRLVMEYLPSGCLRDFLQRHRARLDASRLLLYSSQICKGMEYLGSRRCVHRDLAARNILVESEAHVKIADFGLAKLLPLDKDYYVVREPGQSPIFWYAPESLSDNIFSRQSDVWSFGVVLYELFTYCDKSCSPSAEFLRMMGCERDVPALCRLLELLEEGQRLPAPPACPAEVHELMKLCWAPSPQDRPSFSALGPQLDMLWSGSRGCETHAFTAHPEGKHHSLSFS
In short: (§1)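 Replicate wells; top concentration 10 µM, 3-fold steps, 10 points (or 10 nM/100 nM single doses). Enzyme preincubated 10 min RT with compound; ATP/substrate start; stop solution; Caliper conversion read. IC50 by Hill-slope curve fit.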

CDK9 = CDK9 (Homo sapiens, UniProt P50750); assay: experiment of inhibiting kinase activity (Caliper mobility shift assay), CDK9; settings: for inhibition at 0.1 µM: at 100 nM
Procedure: (§2) The inhibition rates of tested compounds on JAK1, JAK2, JAK3, TYK2, CDK7, CDK9, EGFR (T790M) and LRRK2 kinases were measured. The test concentrations of the compounds were 10 nM and 100 nM, and the detection was performed by replicate wells. Alternatively, compounds were 3-fold serial diluted from 10 µM for 10 concentrations in replicate wells.
(§3) The inhibitory effects of the compounds on JAK1, JAK2, JAK3, CDK7 and CDK9 kinases were detected by the method of Caliper mobility shift assay. 250 nL of the compound at 100-fold final concentration was transferred to a destination plate 384-well-plate by using a liquid handler Echo 550. A kinase solution at 2.5-fold final concentration was prepared with 1×kinase buffer. 10 µL of the kinase solution with 2.5-fold final concentration was added to compound wells and positive control wells; and 10 µL of 1×kinase buffer was added to negative control wells. The mixture was centrifuged at 1000 rpm for 30 seconds and then incubated at room temperature for 10 minutes. A mixed solution of ATP and kinase substrate at 5/3-fold final concentration was prepared with 1×kinase buffer, and 15 µL of the mixed solution of ATP and substrate at 5/3-fold final concentration was added to start the reaction. The 384-well plate was centrifuged at 1000 rpm for 30 seconds, shaked and mixed evenly, then incubated at room temperature for a corresponding time. 30 µL of stop solution was added to stop the kinase reaction, the mixture was centrifuged at 1000 rpm for 30 seconds, and shaked and mixed evenly. The conversion rate was read by Caliper EZ Reader. The conversion inhibition rate%=(average positive control conversion rate%-sample conversion rate%)/(average positive control conversion rate%-average negative control conversion rate%). Where negative control wells represent the conversion readings of the background well of kinase buffer; and positive control wells represent the conversion readings of wells without compound inhibition. With the log value of concentration as the x axis and the percentage inhibition rate as the y axis, the dose-response curve was fitted by the log (inhibitor) vs. response-variable slope of the analyzing softwar GraphPad Prism 5, and the IC50 values of each compound on enzyme activity were obtained. Calculation formula is as follows: y=Bottom+(Top-Bottom)/(1+10^((LogIC50-x)×hillslope)), where x is logarithm of inhibitor concentration; and Y is % inhibition rate.

JAK2 = JAK2 (Homo sapiens, UniProt O60674); assay: experiment of inhibiting kinase activity (Caliper mobility shift assay), JAK2; settings: for inhibition at 0.01 µM: at 10 nM; for inhibition at 0.01 µM / inhibition at 0.1 µM: read-out: inhibition rate JAK2; for inhibition at 0.1 µM: at 100 nM
In short: as §1

CDK7 = CDK7 (Homo sapiens, UniProt P50613); assay: experiment of inhibiting kinase activity (Caliper mobility shift assay), CDK7; settings: read-out: inhibition rate CDK7; for inhibition at 0.1 µM: at 100 nM
Procedure: as §2, §3

TYK2 = TYK2 (Homo sapiens, UniProt P29597); assay: experiment of inhibiting kinase activity, TYK2; settings: read-out: inhibition rate TYK2; for inhibition at 0.01 µM: at 10 nM; for inhibition at 0.1 µM: at 100 nM
Procedure: as §2

LRRK2 = LRRK2 (Homo sapiens, UniProt Q5S007); assay: experiment of inhibiting kinase activity, LRRK2; settings: for inhibition at 0.01 µM: at 10 nM; for inhibition at 0.01 µM / inhibition at 0.1 µM: read-out: inhibition rate LRRK2; for inhibition at 0.1 µM: at 100 nM; for IC50: kinase activity assay, Table 3
Procedure: as §2

JAK1 = JAK1 (Homo sapiens, UniProt P23458); assay: experiment of inhibiting kinase activity (Caliper mobility shift assay), JAK1
Procedure: as §2, §3

Sequence of CDK9 (P50750 whole entry): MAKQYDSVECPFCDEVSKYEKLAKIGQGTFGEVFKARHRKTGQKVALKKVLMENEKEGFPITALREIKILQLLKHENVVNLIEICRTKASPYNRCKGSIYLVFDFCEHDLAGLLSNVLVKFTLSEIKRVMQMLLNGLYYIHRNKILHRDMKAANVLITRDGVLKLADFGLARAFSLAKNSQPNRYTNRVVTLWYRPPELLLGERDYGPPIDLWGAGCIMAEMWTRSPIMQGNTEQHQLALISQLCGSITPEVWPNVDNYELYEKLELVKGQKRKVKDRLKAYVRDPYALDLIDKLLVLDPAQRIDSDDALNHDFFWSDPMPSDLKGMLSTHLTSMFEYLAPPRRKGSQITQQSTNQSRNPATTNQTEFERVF
Sequence of CDK9 (O60563 whole entry partner): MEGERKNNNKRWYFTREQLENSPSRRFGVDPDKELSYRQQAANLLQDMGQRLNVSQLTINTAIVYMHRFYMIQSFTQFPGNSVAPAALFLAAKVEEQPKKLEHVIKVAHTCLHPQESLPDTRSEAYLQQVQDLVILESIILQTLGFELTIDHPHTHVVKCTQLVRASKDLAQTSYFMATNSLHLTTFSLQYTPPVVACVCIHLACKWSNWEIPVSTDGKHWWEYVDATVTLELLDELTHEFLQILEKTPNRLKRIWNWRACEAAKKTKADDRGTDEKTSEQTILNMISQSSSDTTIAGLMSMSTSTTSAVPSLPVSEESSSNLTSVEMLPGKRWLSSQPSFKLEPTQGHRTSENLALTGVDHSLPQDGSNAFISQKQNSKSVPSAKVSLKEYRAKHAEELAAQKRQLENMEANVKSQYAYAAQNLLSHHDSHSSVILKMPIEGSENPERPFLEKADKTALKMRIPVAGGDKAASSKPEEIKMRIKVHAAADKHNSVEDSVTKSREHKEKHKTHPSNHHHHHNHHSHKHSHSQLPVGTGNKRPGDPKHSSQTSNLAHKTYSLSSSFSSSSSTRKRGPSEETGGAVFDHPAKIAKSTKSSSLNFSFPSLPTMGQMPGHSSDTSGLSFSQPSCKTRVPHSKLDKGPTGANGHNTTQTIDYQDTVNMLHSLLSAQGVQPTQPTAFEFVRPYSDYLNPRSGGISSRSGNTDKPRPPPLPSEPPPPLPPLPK
Sequence of LRRK2 (Q5S007 whole entry): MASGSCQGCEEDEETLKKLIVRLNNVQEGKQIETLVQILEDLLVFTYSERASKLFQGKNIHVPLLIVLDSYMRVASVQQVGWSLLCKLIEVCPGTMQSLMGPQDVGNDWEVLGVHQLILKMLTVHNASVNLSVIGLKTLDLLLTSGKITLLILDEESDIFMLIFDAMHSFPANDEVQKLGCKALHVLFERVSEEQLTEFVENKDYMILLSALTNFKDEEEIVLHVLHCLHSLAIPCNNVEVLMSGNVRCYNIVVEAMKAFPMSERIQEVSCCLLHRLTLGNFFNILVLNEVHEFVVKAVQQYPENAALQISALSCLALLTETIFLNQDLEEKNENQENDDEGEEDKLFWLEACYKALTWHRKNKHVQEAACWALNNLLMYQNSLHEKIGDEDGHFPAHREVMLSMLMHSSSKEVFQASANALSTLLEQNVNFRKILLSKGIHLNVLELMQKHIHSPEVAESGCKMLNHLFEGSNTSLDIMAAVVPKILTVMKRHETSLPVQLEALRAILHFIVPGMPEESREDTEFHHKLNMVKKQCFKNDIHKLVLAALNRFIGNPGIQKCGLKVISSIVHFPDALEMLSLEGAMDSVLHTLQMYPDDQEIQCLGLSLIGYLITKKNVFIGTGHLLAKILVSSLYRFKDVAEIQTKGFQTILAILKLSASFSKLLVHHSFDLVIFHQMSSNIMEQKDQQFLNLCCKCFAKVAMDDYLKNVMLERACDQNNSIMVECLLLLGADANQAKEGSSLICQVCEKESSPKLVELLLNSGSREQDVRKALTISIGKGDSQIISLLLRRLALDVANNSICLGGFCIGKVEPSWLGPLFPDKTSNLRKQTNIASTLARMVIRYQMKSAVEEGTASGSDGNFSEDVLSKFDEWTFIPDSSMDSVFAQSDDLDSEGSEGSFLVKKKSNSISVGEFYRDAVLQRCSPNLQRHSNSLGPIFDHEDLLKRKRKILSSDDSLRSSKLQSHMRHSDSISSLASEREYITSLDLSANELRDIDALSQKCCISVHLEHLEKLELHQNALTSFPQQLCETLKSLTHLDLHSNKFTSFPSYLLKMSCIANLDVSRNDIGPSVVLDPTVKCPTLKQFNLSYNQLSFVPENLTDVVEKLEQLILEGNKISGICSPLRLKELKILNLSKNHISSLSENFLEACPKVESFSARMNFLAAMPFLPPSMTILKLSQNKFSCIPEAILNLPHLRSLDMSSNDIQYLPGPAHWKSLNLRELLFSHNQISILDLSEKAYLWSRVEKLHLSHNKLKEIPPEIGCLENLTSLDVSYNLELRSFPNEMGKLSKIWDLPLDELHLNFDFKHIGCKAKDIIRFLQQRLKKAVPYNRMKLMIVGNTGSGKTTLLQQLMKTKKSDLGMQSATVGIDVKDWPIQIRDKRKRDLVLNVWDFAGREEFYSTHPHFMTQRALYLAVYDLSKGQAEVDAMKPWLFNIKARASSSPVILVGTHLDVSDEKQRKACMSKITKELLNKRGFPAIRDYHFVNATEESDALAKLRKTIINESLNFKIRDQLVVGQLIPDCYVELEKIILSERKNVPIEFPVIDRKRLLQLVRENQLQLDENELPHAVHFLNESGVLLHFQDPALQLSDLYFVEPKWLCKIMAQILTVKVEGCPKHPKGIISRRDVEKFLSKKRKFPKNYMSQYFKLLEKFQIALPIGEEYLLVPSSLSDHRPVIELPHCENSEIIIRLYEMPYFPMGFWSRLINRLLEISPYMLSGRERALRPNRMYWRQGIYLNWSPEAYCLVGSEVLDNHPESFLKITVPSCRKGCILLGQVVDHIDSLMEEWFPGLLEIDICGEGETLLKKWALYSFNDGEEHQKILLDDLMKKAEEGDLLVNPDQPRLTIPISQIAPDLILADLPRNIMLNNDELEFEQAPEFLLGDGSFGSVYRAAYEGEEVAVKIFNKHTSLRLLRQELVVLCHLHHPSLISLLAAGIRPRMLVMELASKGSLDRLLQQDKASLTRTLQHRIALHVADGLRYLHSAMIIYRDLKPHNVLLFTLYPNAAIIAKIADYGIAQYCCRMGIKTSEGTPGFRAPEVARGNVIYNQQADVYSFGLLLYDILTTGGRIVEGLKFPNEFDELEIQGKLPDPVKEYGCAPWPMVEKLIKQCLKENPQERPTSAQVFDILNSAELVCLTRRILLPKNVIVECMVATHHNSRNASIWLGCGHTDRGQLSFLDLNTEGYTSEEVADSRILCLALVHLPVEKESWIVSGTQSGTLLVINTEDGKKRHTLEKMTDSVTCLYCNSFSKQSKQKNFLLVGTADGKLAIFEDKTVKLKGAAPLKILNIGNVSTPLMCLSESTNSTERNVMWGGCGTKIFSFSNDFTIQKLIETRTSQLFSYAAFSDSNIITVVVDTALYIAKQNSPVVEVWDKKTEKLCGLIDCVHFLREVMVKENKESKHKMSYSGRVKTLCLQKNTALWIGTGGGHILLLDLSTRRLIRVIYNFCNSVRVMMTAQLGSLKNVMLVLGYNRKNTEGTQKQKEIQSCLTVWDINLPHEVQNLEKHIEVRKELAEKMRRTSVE
Sequence of TYK2 (P29597 whole entry): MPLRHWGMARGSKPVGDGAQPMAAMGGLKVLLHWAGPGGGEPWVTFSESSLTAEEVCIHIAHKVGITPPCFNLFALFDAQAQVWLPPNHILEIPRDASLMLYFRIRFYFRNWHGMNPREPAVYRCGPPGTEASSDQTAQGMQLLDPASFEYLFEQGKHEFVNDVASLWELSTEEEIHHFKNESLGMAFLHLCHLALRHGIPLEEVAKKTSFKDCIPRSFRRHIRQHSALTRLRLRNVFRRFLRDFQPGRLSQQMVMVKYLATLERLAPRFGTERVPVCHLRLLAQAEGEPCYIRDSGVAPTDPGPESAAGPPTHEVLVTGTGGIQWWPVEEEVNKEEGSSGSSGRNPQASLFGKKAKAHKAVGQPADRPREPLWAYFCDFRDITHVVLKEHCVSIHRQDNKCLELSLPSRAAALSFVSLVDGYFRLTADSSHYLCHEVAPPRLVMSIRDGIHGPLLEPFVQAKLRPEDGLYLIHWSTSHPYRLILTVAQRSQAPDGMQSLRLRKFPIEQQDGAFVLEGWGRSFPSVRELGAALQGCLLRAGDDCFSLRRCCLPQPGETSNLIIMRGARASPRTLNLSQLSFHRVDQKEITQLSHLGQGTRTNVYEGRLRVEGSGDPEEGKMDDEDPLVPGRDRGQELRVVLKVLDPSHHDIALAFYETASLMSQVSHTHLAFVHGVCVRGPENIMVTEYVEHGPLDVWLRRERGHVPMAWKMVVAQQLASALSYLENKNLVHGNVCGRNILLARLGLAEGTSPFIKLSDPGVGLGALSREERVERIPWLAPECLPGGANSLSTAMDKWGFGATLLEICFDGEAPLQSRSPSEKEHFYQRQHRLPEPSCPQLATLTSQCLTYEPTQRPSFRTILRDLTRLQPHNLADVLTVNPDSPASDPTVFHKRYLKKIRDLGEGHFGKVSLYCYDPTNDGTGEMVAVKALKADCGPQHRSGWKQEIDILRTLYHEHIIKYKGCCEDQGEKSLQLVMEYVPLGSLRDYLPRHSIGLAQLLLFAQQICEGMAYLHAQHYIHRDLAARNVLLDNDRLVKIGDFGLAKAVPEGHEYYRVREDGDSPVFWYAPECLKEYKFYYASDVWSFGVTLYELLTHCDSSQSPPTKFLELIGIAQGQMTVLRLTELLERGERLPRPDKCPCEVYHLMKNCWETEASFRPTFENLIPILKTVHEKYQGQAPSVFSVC

| SMILES | inhibition at 0.01 µM (JAK3) [%] | inhibition at 0.1 µM (JAK3) [%] | inhibition at 0.1 µM (CDK9; read-out: inhibition rate CDK9) [%] | inhibition at 0.01 µM (JAK2) [%] | inhibition at 0.1 µM (JAK2) [%] | inhibition at 0.1 µM (CDK7) [%] | inhibition at 0.01 µM (TYK2) [%] | inhibition at 0.1 µM (TYK2) [%] | inhibition at 0.01 µM (LRRK2) [%] | inhibition at 0.1 µM (LRRK2) [%] | IC50 (LRRK2) [nM] | inhibition at 0.01 µM (CDK9; at 10 nM, read-out: inhibition rate CDK9) [%] | IC50 (CDK9; kinase activity assay, Table 3) [nM] | IC50 (JAK3; kinase activity assay, Table 3) [nM] | IC50 (JAK2; kinase activity assay, Table 3) [nM] | inhibition at 0.1 µM (JAK1; at 100 nM, read-out: inhibition rate JAK1) [%] | IC50 (JAK1; kinase activity assay, Table 3) [nM] | inhibition at 0.01 µM (CDK7; at 10 nM) [%] |
| --- | --- | --- | --- | --- | --- | --- | --- | --- | --- | --- | --- | --- | --- | --- | --- | --- | --- | --- |
| CN1CCOCCOc2cc(Nc3nc(Nc4ccccc4P(C)(C)=O)c4cc[nH]c4n3)ccc2OCC1 [Example 32, dimethyl(2-((2-((7-methyl-2,3,6,7,8,9-hexahydro-5H-benzo[b][1,4,7]trioxa[10]azacyclododecan-13-yl)amino)-7H-pyrrolo[2,3-d]pyrimidin-4-yl)amino)phenyl)phosphine oxide] | > 80 | > 80 | 25 to 39 | 40 to 79 | > 80 | 40 to 79 | 25 to 39 | 40 to 79 | > 80 | > 80 | < 50 | – | – | – | – | – | – | – |
| CC(C)S(=O)(=O)c1ccccc1Nc1nc(Nc2ccc3c(c2)OCCOCCN(C)CCO3)nc2[nH]cnc12 [Example 60, N^6-(2-(isopropylsulfonyl)phenyl)-N^2-(7-methyl-2,3,6,7,8,9-hexahydro-5H-benzo[b][1,4,7]trioxa[10]azacyclododecan-13-yl)-9H-purin-2,6-diamine] | 40 to 79 | > 80 | 40 to 79 | 40 to 79 | > 80 | > 80 | – | 40 to 79 | 40 to 79 | > 80 | – | – | – | – | – | – | – | > 80 |

Next, values leading:

| inhibition at 0.01 µM (JAK3) [%] | inhibition at 0.1 µM (JAK3) [%] | inhibition at 0.1 µM (CDK9; read-out: inhibition rate CDK9) [%] | inhibition at 0.01 µM (JAK2) [%] | inhibition at 0.1 µM (JAK2) [%] | inhibition at 0.1 µM (CDK7) [%] | inhibition at 0.01 µM (TYK2) [%] | inhibition at 0.1 µM (TYK2) [%] | inhibition at 0.01 µM (LRRK2) [%] | inhibition at 0.1 µM (LRRK2) [%] | IC50 (LRRK2) [nM] | inhibition at 0.01 µM (CDK9; at 10 nM, read-out: inhibition rate CDK9) [%] | IC50 (CDK9; kinase activity assay, Table 3) [nM] | IC50 (JAK3; kinase activity assay, Table 3) [nM] | IC50 (JAK2; kinase activity assay, Table 3) [nM] | inhibition at 0.1 µM (JAK1; at 100 nM, read-out: inhibition rate JAK1) [%] | IC50 (JAK1; kinase activity assay, Table 3) [nM] | inhibition at 0.01 µM (CDK7; at 10 nM) [%] | SMILES |
| --- | --- | --- | --- | --- | --- | --- | --- | --- | --- | --- | --- | --- | --- | --- | --- | --- | --- | --- |
| – | – | – | – | – | – | – | – | – | – | – | 40 to 79 | < 50 | – | – | – | – | – | COc1ccc(F)cc1-c1nc(Nc2ccc3c(c2)OCCOCCN(C)CCO3)ncc1F [Example 115, N-(5-fluoro-4-(5-fluoro-2-methoxyphenyl)pyrimidin-2-yl)-7-methyl-2,3,6,7,8,9-hexahydro-5H-benzo[b][1,4,7]trioxa[10]azacyclododecan-13-amine] |
| – | – | 40 to 79 | 40 to 79 | > 80 | – | 25 to 39 | > 80 | – | 40 to 79 | 50 to 200 | – | – | < 50 | < 50 | 40 to 79 | < 50 | – | CN1CCOc2ccc(Nc3ncc(F)c(-c4ccc(C(=O)NCC#N)cc4)n3)cc2OCC1 [Example 15, N-(Cyanomethyl)-4-(5-fluoro-2-((4-methyl-3,4,5,6-tetrahydro-2H-benzo[b][1,4,7]dioxazolin-9-yl)amino)pyrimidin-4-yl)benzamide] |
| – | – | > 80 | – | – | – | – | – | – | – | < 50 | – | – | – | – | – | – | – | CN1CCOc2ccc(Nc3nc(NCCP(C)(C)=O)c4cc[nH]c4n3)cc2OCC1 [Example 85, dimethyl(2-((2-((4-methyl-3,4,5,6-tetrahydro-2H-benzo[b][1,4,7]dioxazolin-9-yl)amino)-7H-pyrrolo[2,3-d]pyrimidin-4-yl)amino)ethyl)phosphine oxide] |
